From patent US20260365664A1, “HARRINGTONINE DERIVATIVE, PHARMACEUTICAL COMPOSITION THEREOF, PREPARATION METHOD THEREFOR, AND USE THEREOF” (NANKAI UNIVERSITY, priority 2022, published 2026)

Key:
Assay type in all cases: cell-based
[1] = tested on: human colon cancer cells LoVo; assay: MTT in vitro cell growth inhibition, human colon cancer cells LoVo (48 h)
Method: (§1) Human breast cancer cell MCF-7, hepatocellular carcinoma cell HepG2, lung adenocarcinoma cell A549 were purchased from Shanghai Cell Bank of Chinese Academy of Sciences. Human leukemia cells HL-60, human leukemia cells adriamycin-resistant strain HL-60/ADR, and human glioblastoma cells U-87MG were purchased from Shanghai Chuanqiu Biotechnology Co. Human cervical cancer HeLa was purchased from Shanghai Jikai Gene Chemistry Technology Co. Human colon cancer cells HCT-116, human brain microvascular endothelial cells hCMEC/D3 were preserved by Tianjin Suntech Pharmaceutical Technology Co. Human colon cancer cells Sw620 and human colon cancer cells LoVo were provided by Tianjin Medical University Hospital.
(§2) Human breast cancer cell MCF-7, hepatocellular carcinoma cell HepG2, lung adenocarcinoma cell A549, human leukemia cell HL-60, human leukemia cell adriamycin-resistant strain HL-60/ADR, human glioblastoma cell U-87MG, human cervical carcinoma cell HeLa, human colon carcinoma cell HCT-116, human colon carcinoma cell Sw620, human colon carcinoma cell LoVo, Human brain microvascular endothelial cells HCMEC/D3 were cultured using DMEM medium. The medium was supplemented with 10% fetal bovine serum and 1% double antibody (penicillin+streptomycin), and the culture environment was an incubator filled with 5% CO2 at a temperature of 37 °C, when the cells basically grew all over the bottom of the dish (about 80%-90%), passaging culture was performed.
(§3) Preparation of MTT solution: Weigh 50 mg of MTT, dissolve it in 10 mL of phosphate buffer solution (PBS), dispense it, and store it at 4 °C away from light, it will be effective within two weeks. […]
(§4) 4. Remove the 96-well plate from the incubator, carefully aspirate the medium in the wells with a micropipette, and add 150 μl of dimethyl sulfoxide to each well, shake to dissolve the crystals completely, and then measure the absorbance OD value using an enzyme counter at 492 nm. […]

[2] = tested on: hepatocellular carcinoma cell HepG2; assay: MTT in vitro cell growth inhibition, hepatocellular carcinoma cell HepG2 (48 h); details: Homo sapiens, HepG2 cells
Method: as §1, §2
(§5) Preparation of MTT solution: Weigh 50 mg of MTT, dissolve it in 10 mL of phosphate buffer solution (PBS), dispense it, and store it at 4 °C away from light, it will be effective within two weeks.
(§6) Take the series of compounds diluted with medium to form 1 mg/ml master batch, before use, precise aspiration of the appropriate amount of sample master batch diluted with medium to form working solutions with different concentration gradients, such as 100 μg/ml, 10 μg/ml, 1 μg/ml, 0.1 μg/ml, 0.01 μg/ml, 0.001 μg/ml and so on.
(§7) 1. Take log phase cells, digest, centrifuge and resuspend. The cell density was adjusted to 1×10^5 cells/mL by adding culture medium, and 100 μl of prepared cell suspension per well was added and inoculated into 96-well cell culture plates, after which they were placed in a cell culture incubator for incubation.
(§8) 2. After 24 h of culture, the test group was added 2 μl of the series of compounds with concentrations of 100 μg/ml, 10 μg/ml, 1 μg/ml, 0.1 μg/ml, 0.01 μg/ml, 0.001 μg/ml, and 4 replicate wells were set up for each concentration, as well as a positive control group (etoposide) and a blank control group.
(§9) 3. The 96-well plates were incubated separately for 48 h and then 20 μl of MTT solution (concentration of 5 mg/ml) was added to each well and incubation was continued for 4 hours in the incubator.
(§10) 4. Remove the 96-well plate from the incubator, carefully aspirate the medium in the wells with a micropipette, and add 150 μl of dimethyl sulfoxide to each well, shake to dissolve the crystals completely, and then measure the absorbance OD value using an enzyme counter at 492 nm.
(§11) 5. The test was repeated three times consecutively and the cell inhibition rate was calculated according to the following formula: cell inhibition rate (%)=[1−OD value of the test group/OD of the blank control group)]×100%, and the IC50 value of the half inhibitory concentration of the samples for inhibiting cell growth was calculated.

[3] = tested on: human breast cancer cell MCF-7; assay: MTT in vitro cell growth inhibition, human breast cancer cell MCF-7 (48 h); details: MCF7, MCF-7 cells
Method: as §1, §2, §5, §6, §7, §8, §9, §10, §11

[4] = tested on: human leukemia cells HL-60; assay: MTT in vitro cell growth inhibition, human leukemia cells HL-60 (48 h); details: HL-60 cells
Method: as §1, §2, §5, §6, §7, §8, §9, §10, §11

[5] = tested on: human brain microvascular endothelial cells hCMEC/D3; assay: MTT in vitro cell growth inhibition, human brain microvascular endothelial cells hCMEC/D3 (48 h)
Method: as §1, §2, §5, §6, §7
2. […]
as §4

[6] = tested on: human cervical cancer HeLa; assay: MTT in vitro cell growth inhibition, human cervical cancer HeLa (48 h); details: HeLa cells
Method: as §1, §2, §3, §4

[7] = tested on: lung adenocarcinoma cell A549; assay: MTT in vitro cell growth inhibition, lung adenocarcinoma cell A549 (48 h); details: Homo sapiens, A549 cells
Method: as §1, §2, §5, §6, §7, §8, §9, §10, §11

[8] = tested on: human colon cancer cells Sw620; assay: MTT in vitro cell growth inhibition, human colon cancer cells Sw620 (48 h); details: SW-620
Method: as §1, §2, §3, §4

[9] = tested on: human colon cancer cells HCT-116; assay: MTT in vitro cell growth inhibition, human colon cancer cells HCT-116 (48 h); details: HCT116 cells
Method: as §1, §2, §5, §6, §7, §8, §9, §10, §11

SMILES	IC50 [2]	IC50 [3]	IC50 [4]	IC50 [7]	further results
COC(=O)C[C@](O)(CCCC(C)(C)O)C(=O)O[C@@H]1C(OC)=C[C@]23CCCN2CCc2cc4c(cc2[C@H]13)OCO4 [HHT, homoharringtonine, reference compound]	22 nM	40 nM	40 nM	190 nM	IC50 [1]: 335 nM; IC50 [5]: 171 nM; IC50 [6]: 34 nM; IC50 [8]: 35 nM; IC50 [9]: 26 nM
COC1=C[C@]23CCCN2CCc2cc4c(cc2[C@@H]3[C@@H]1OC(=O)C(O)(C/C=N/OC(=O)[C@H](C)c1ccc2cc(OC)ccc2c1)CCC(C)C)OCO4 (stereo partly drawn) [Compound I-3-31]	–	–	20 nM	21 nM	IC50 [1]: 45 nM; IC50 [5]: 24 nM; IC50 [8]: 3.4 nM
COC(=O)C[C@](O)(CCc1ccc2ccccc2c1)C(=O)O[C@@H]1C(OC)=C[C@]23CCCN2CCc2cc4c(cc2[C@H]13)OCO4 [Compound I-2-44]	95 nM	65 nM	8.7 nM	20 nM	–
COC(=O)C[C@](O)(CCC(F)(F)C(F)(F)F)C(=O)O[C@@H]1C(OC)=C[C@]23CCCN2CCc2cc4c(cc2[C@H]13)OCO4 [Compound I-2-30]	–	–	–	21 nM	IC50 [6]: 28 nM
COC1=C[C@]23CCCN2CCc2cc4c(cc2[C@@H]3[C@@H]1OC(=O)C(O)(C/C=N/OC(=O)[C@H](C)c1ccc2cc(OC)ccc2c1)CCc1ccc2c(c1)CCO2)OCO4 (stereo partly drawn) [Compound I-3-34]	–	–	–	283 nM	IC50 [9]: 26 nM
COC(=O)C[C@](O)(CCc1cccc(NC(=O)Nc2ccc(OC)cc2)c1)C(=O)O[C@@H]1C(OC)=C[C@]23CCCN2CCc2cc4c(cc2C13)OCO4 (stereo partly drawn) [Compound I-1-22]	–	–	13.5 nM	–	–
COC1=C[C@]23CCCN2CCc2cc4c(cc2[C@@H]3[C@@H]1OC(=O)C(O)(C/C=N\OC(C)=O)CCC(C)C)OCO4 (stereo partly drawn) [Compound I-3-13]	–	–	18 nM	45 nM	IC50 [9]: 16 nM
COC(=O)C[C@](O)(CCc1cccc(NC(=O)Nc2ccc(C)cc2)c1)C(=O)O[C@@H]1C(OC)=C[C@]23CCCN2CCc2cc4c(cc2[C@H]13)OCO4 [Compound I-1-1]	25 nM	4.3 nM	–	–	–
COC(=O)C[C@](O)(CCc1ccc(OC)cc1)C(=O)O[C@@H]1C(OC)=C[C@]23CCCN2CCc2cc4c(cc2[C@H]13)OCO4 [Compound I-2-45]	17 nM	90 nM	–	210 nM	–
COC1=C[C@]23CCCN2CCc2cc4c(cc2[C@@H]3[C@@H]1OC(=O)C(O)(CCC(C)C)CC(=O)SC)OCO4 (stereo partly drawn) [Compound I-2-52]	–	–	–	–	IC50 [9]: 46 nM
COC(=O)C[C@](O)(CCc1cccc(N)c1)C(=O)O[C@@H]1C(OC)=C[C@]23CCCN2CCc2cc4c(cc2[C@H]13)OCO4 [Compound I-2-5]	40 nM	11 nM	3.1 nM	–	–
CCCCC(O)(C/C=N\OC(=O)C(C)C)C(=O)O[C@@H]1C(OC)=C[C@]23CCCN2CCc2cc4c(cc2[C@H]13)OCO4 (stereo partly drawn) [Compound I-3-24]	–	–	67 nM	36 nM	IC50 [5]: 245 nM; IC50 [9]: 24 nM
COC1=C[C@]23CCCN2CCc2cc4c(cc2[C@@H]3[C@@H]1OC(=O)C(O)(C/C=N\OC(=O)C(C)C)CCC(C)C)OCO4 (stereo partly drawn) [Compound I-3-23]	–	–	34 nM	21 nM	IC50 [9]: 71 nM
COC1=C[C@]23CCCN2CCc2cc4c(cc2[C@@H]3[C@@H]1OC(=O)C(O)(C/C=N/OC(C)=O)CCC=C(C)C)OCO4 (stereo partly drawn) [Compound I-3-15]	–	–	–	83 nM	–
COC(=O)C[C@](O)(CCc1ccc(SC)cc1)C(=O)O[C@@H]1C(OC)=C[C@]23CCCN2CCc2cc4c(cc2[C@H]13)OCO4 [Compound I-2-41]	10 nM	60 nM	–	150 nM	–
C=CC(=O)O/N=C/CC(O)(CCC(C)C)C(=O)O[C@@H]1C(OC)=C[C@]23CCCN2CCc2cc4c(cc2[C@H]13)OCO4 (stereo partly drawn) [Compound I-3-22]	–	–	–	39 nM	IC50 [9]: 48 nM
COC(=O)C[C@](O)(CCc1cccc(NC(=O)NC2CCCC2)c1)C(=O)O[C@@H]1C(OC)=C[C@]23CCCN2CCc2cc4c(cc2C13)OCO4 (stereo partly drawn) [Compound I-1-2]	14 nM	0.5 nM	7.7 nM	70 nM	IC50 [1]: 57 nM; IC50 [8]: 12 nM
COC(=O)C[C@](O)(CCc1cccc2ccccc12)C(=O)O[C@@H]1C(OC)=C[C@]23CCCN2CCc2cc4c(cc2[C@H]13)OCO4 [Compound I-2-43]	15 nM	–	–	–	–
COC(=O)C[C@](O)(CCc1ccccc1C(F)(F)F)C(=O)O[C@@H]1C(OC)=C[C@]23CCCN2CCc2cc4c(cc2[C@H]13)OCO4 [Compound I-2-38]	75 nM	220 nM	–	290 nM	–
COC1=C[C@]23CCCN2CCc2cc4c(cc2[C@@H]3[C@@H]1OC(=O)C(O)(C/C=N/OC(=O)NC1CCCC1)CCC(C)C)OCO4 (stereo partly drawn) [Compound I-3-46]	–	–	42 nM	53 nM	IC50 [5]: 60 nM
COC(=O)C[C@@](O)(CCc1cccc([N+](=O)[O-])c1)C(=O)O[C@@H]1C(OC)=C[C@]23CCCN2CCc2cc4c(cc2C13)OCO4 (stereo partly drawn) [Compound I-2-2]	29 nM	14 nM	–	–	–
COC(=O)C[C@](O)(CCc1cccc(NC(=O)NC2CCCCC2)c1)C(=O)O[C@@H]1C(OC)=C[C@]23CCCN2CCc2cc4c(cc2C13)OCO4 (stereo partly drawn) [Compound I-1-9]	–	–	8.9 nM	–	–
COC(=O)C[C@](O)(CCc1cccc(NC(C)=O)c1)C(=O)O[C@@H]1C(OC)=C[C@]23CCCN2CCc2cc4c(cc2[C@H]13)OCO4 [Compound I-2-9]	48 nM	34 nM	3.3 nM	–	–
COC1=C[C@]23CCCN2CCc2cc4c(cc2[C@@H]3[C@@H]1OC(=O)C(O)(C/C=N\OC(=O)C(C)C)CCC=C(C)C)OCO4 (stereo partly drawn) [Compound I-3-25]	–	–	–	92 nM	–
COC(=O)C[C@](O)(CCCC(F)(F)F)C(=O)O[C@@H]1C(OC)=C[C@]23CCCN2CCc2cc4c(cc2[C@H]13)OCO4 [Compound I-2-29]	–	–	–	61 nM	IC50 [6]: 25 nM
COC(=O)C[C@](O)(CCc1cccc(F)c1F)C(=O)O[C@@H]1C(OC)=C[C@]23CCCN2CCc2cc4c(cc2[C@H]13)OCO4 [Compound I-2-35]	23 nM	110 nM	–	60 nM	–
CCCCC(O)(C/C=N\OC(C)=O)C(=O)O[C@@H]1C(OC)=C[C@]23CCCN2CCc2cc4c(cc2[C@H]13)OCO4 (stereo partly drawn) [Compound I-3-14]	–	–	–	44 nM	IC50 [9]: 69 nM
